According to US6777544B2, “Polyamide nucleic acid derivatives and agents and processes for preparing them” (Aventis Pharma Deutschland GmbH, priority 2000, dated 2004):

Tests used:
[1] = test system: complementary RNA; experiment: Melting temperature (Tm) of PNA with complementary RNA; format: binding; conditions: 140 mM KCl, 10 mM sodium dihydrogen phosphate, 0.1 mM EDTA (pH 7.4); oligomer 0.5 to 1 OD260 per ml
Procedure: (§1) The melting temperatures were determined using an HP 8452A diode-array spectrophotometer, an HP 89090A Peltier element, and HP Temperature Control Software Rev. B5.1 (from Hewlett Packard). Measurements were taken in 0.5° C./min steps in 140 mM KCl, 10 mM sodium dihydrogen phosphate, 0.1 mM EDTA (pH 7.4) as the buffer. The oligomer concentration was from 0.5 to 1 OD260 per ml.

[2] = test system: complementary DNA; experiment: Melting temperature (Tm) of PNA with complementary DNA; format: binding; conditions: 140 mM KCl, 10 mM sodium dihydrogen phosphate, 0.1 mM EDTA (pH 7.4); oligomer 0.5 to 1 OD260 per ml
Procedure: as §1

[3] = test system: COS cells; experiment: Cell uptake after fluorescence labeling (fluorescence microscopy); format: cell-based; conditions: PNA solution 10 μM, 37° C., examined after 2, 4 and 16 hours, C-terminally fluorescein-labeled, compared with labeled PNA-6
Procedure: COS cells were allowed to grow to confluence in Dulbecco's MEM (DMEM), which had been supplemented with 10% FCS, in 5 cm Petri dishes. The cells were washed twice with serum-free DM EM. An area of approx. 1 cm^2 was scratched out in the middle of the Petri dish using a sterile needle. The PNA solution (10 μM) under investigation was applied in this area. The dish was incubated at 37° C. under a CO2 atmosphere. After 2, 4, and 16 hours, the cells were examined by fluorescence microscopy. For this, the cells were washed four times with serum-free DM EM, covered with a cover slip, and evaluated under the fluorescence microscope or by phase contrast.
In order to investigate the cell uptake, PNA-6 and PNA-13 were labeled as indicated directly below with fluorescein at the C terminus and then examined microscopically.

[4] = test system: REH cells; experiment: Inhibiting cell proliferation (cell density); format: cell-based, human; conditions: 10 μM
Procedure: The sequence of PNA-13 is directed against the translation start of the Ha-ras mRNA. REH cells (human pre-B leukemia cells, DSM ACC 22) or A549 tumor cells were cultured, at 37° C. and under 5% CO2, in OptiMEM (Gibco BRL) containing 10% fetal calf serum (FCS, GIBCO-BRL). The cell density for the assay was approx. 1×10^6/ml. The PNA-13 (10 μM) was incubated with the cells in 24-well plates. After incubating at 37° C. and under 5% CO2 for 96 hours, the cell density was determined. Mean values for the cell density were determined from 3 individual wells at a given PNA concentration.

Substance	Tm (RNA) [1]	Tm (DNA) [2]	cell uptake [3]	inhibition of cell proliferation ([4]; 96 hours, 37° C., 5% CO2)	inhibition of proliferation compared with a corresponding phosphorothioate oligonucleotide ([4]; after >4 days of incubation)
Ac-HN-tat tcc gtc at-hex [Reference, reference compound]	56.6 °C	41.9 °C	–	–	–
Biotin-p-{t(oeg) at tcc gtc at}-hex [PNA-12]	57.9 °C	43.6 °C	–	–	–
Fluorescein-p-{t(oeg) at tcc gtc at}-hex (TATTCCGTCAT; chemistry not fully specified) [PNA-14]	56.7 °C	42.5 °C	–	–	–
Hexadecyl-O-p-{t(oeg) at tcc gtc at}-hex (TATTCCGTCAT; chemistry not fully specified) [PNA-13]	58.9 °C	46.7 °C	taken up more efficiently into the cells	inhibits proliferation of the REH cells	greater than that brought about by a corresponding phosphorothioate oligonucleotide
Phosphate-{t(oeg)-at tcc gtc at}-hex (TATTCCGTCAT; chemistry not fully specified) [PNA-6]	57.5 °C	44.0 °C	–	–	–
